According to ChEMBL document CHEMBL4138216, “Design, synthesis and structure-activity relationship of a focused library of β-phenylalanine derivatives as novel eEF2K inhibitors with apoptosis-inducing mechanisms in breast cancer” (Eur J Med Chem, 2018):
The source made the active and inactive calls. No cut-off for these calls is given here.

Columns and labels:
[1] = tested on: MDA-MB-231; test: cells; conditions: Homo sapiens, MDA-MB-231, 24 h
Description: Antiproliferative activity against human MDA-MB-231 cells assessed as decrease in cell viability after 24 hrs by MTT assay

[2] = tested on: Mus musculus; test: Toxicity in BALB/c nude mouse xenografted with human MDA-MB-231 cells assessed as body weight loss at 50 to 100 mg/kg, ig qd measured every 3 days for 24 days during compound dosing; type: organism-based; conditions: in vivo, po, 576 h
[3] = tested on: Mus musculus; test: Toxicity in BALB/c nude mouse xenografted with human MDA-MB-231 cells assessed as effect on liver weight at 25 to 100 mg/kg, ig qd measured after 24 days; type: organism-based; conditions: in vivo, po, 576 h
[4] = tested on: Mus musculus; test: Toxicity in BALB/c nude mouse xenografted with human MDA-MB-231 cells assessed as effect on kidney weight at 25 to 100 mg/kg, ig qd measured after 24 days; type: organism-based; conditions: in vivo, po, 576 h
[5] = tested on: MDA-MB-436; test: Induction of apoptosis in human MDA-MB-436 cells assessed as DNA condensation after 12 to 36 hrs by Hoechst 33258 staining-based fluorescence assay; type: functional, cell-based
[6] = tested on: Mus musculus; test: In vivo inhibition of eEF2K phosphorylation in tumor of BALB/c nude mouse xenografted with human MDA-MB-231 cells at 25 to 100 mg/kg, ig qd measured after 24 days by Western blot method; type: functional, organism-based
[7] = tested on: Mus musculus; test: In vivo inhibition of eEF2K phosphorylation in tumor of BALB/c nude mouse xenografted with human MDA-MB-231 cells at 25 to 100 mg/kg, ig qd measured after 24 days by immunohistochemical analysis; type: functional, organism-based
[8] = tested on: Mus musculus; test: Toxicity in BALB/c nude mouse xenografted with human MDA-MB-436 cells assessed as effect on liver weight at 25 to 100 mg/kg, ig qd measured after 24 days; type: organism-based; conditions: in vivo, po, 576 h
[9] = tested on: MDA-MB-231; test: Induction of apoptosis in human MDA-MB-231 cells xenografted in BALB/c nude mouse at 25 to 100 mg/kg, ig qd measured after 24 days by TUNEL assay; type: functional, organism-based
[10] = tested on: MDA-MB-436; test: Induction of apoptosis in human MDA-MB-436 cells assessed as increase in caspase-8 cleavage after 12 to 36 hrs by Western blot method; type: functional, cell-based
[11] = tested on: MDA-MB-436; test: Induction of apoptosis in human MDA-MB-436 cells assessed as upregulation of Bax expression after 12 to 36 hrs by Western blot method; type: functional, cell-based
[12] = tested on: MDA-MB-231; test: Induction of apoptosis in human MDA-MB-231 cells xenografted in BALB/c nude mouse assessed as decrease in pro-caspase-3 levels at 25 to 100 mg/kg, ig qd measured after 24 days by immunohistochemical analysis; type: functional, organism-based
[13] = tested on: MDA-MB-231; test: Induction of apoptosis in human MDA-MB-231 cells assessed as increase in caspase-3 cleavage after 12 to 36 hrs by Western blot method; type: functional, cell-based
[14] = tested on: MDA-MB-231; test: Induction of apoptosis in human MDA-MB-231 cells assessed as increase in PARP cleavage after 12 to 36 hrs by Western blot method; type: functional, cell-based
[15] = tested on: MDA-MB-231; test: Induction of apoptosis in human MDA-MB-231 cells xenografted in BALB/c nude mouse assessed as increase in PARP cleavage at 25 to 100 mg/kg, ig qd measured after 24 days by Western blot method; type: functional, organism-based
[16] = tested on: MDA-MB-231; test: Induction of apoptosis in human MDA-MB-231 cells assessed as increase in caspase-8 cleavage after 12 to 36 hrs by Western blot method; type: functional, cell-based
[17] = tested on: MDA-MB-436; test: Induction of apoptosis in human MDA-MB-436 cells assessed as formation of apoptotic bodies by phase contrast microscopy; type: functional, cell-based
[18] = tested on: MDA-MB-231; test: Induction of apoptosis in human MDA-MB-231 cells assessed as formation of apoptotic bodies by phase contrast microscopy; type: functional, cell-based
[19] = tested on: MDA-MB-231; test: Induction of apoptosis in human MDA-MB-231 cells xenografted in BALB/c nude mouse assessed as increase in caspase-3 cleavage at 25 to 100 mg/kg, ig qd measured after 24 days by Western blot method; type: functional, organism-based
[20] = tested on: Mus musculus; test: Toxicity in BALB/c nude mouse xenografted with human MDA-MB-436 cells assessed as effect on kidney weight at 25 to 100 mg/kg, ig qd measured after 24 days; type: organism-based; conditions: in vivo, po, 576 h
[21] = tested on: MDA-MB-231; test: Antitumor activity against human MDA-MB-231 cells xenografted in ig dosed BALB/c nude mouse assessed as tumor growth inhibition administered once a day measured every 3 days for 24 days during compound dosing; type: functional, organism-based
[22] = tested on: MDA-MB-436; test: Induction of apoptosis in human MDA-MB-436 cells assessed as downregulation of Bcl-2 expression after 12 to 36 hrs by Western blot method; type: functional, cell-based
[23] = tested on: Mus musculus; test: Toxicity in BALB/c nude mouse xenografted with human MDA-MB-231 cells assessed as body weight loss at 25 mg/kg, ig qd measured every 3 days for 24 days during compound dosing; type: organism-based; conditions: in vivo, po
[24] = tested on: MDA-MB-436; test: Antiproliferative activity against human MDA-MB-436 cells assessed as decrease in cell viability after 24 hrs by MTT assay; type: functional, cell-based; conditions: MDA-MB-436, 24 h
[25] = tested on: Mus musculus; test: Toxicity in BALB/c nude mouse xenografted with human MDA-MB-436 cells assessed as body weight loss at 50 to 100 mg/kg, ig qd measured every 3 days for 24 days during compound dosing; type: organism-based; conditions: in vivo, po, 576 h
[26] = tested on: MDA-MB-436; test: Induction of apoptosis in human MDA-MB-436 cells assessed as membrane blebbing by phase contrast microscopy; type: functional, cell-based
[27] = tested on: Mus musculus; test: Toxicity in BALB/c nude mouse xenografted with human MDA-MB-231 cells assessed as decrease in spleen weight at 100 mg/kg, ig qd measured after 24 days; type: organism-based; conditions: in vivo, po, 576 h
[28] = tested on: MDA-MB-231; test: Induction of apoptosis in human MDA-MB-231 cells assessed as DNA condensation after 12 to 36 hrs by Hoechst 33258 staining-based fluorescence assay; type: functional, cell-based
[29] = tested on: MDA-MB-436; test: Induction of apoptosis in human MDA-MB-436 cells assessed as increase in caspase-3 cleavage after 12 to 36 hrs by Western blot method; type: functional, cell-based
[30] = tested on: MDA-MB-231; test: Induction of apoptosis in human MDA-MB-231 cells assessed as membrane blebbing by phase contrast microscopy; type: functional, cell-based
[31] = tested on: MDA-MB-436; test: Induction of apoptosis in human MDA-MB-436 cells assessed as increase in PARP cleavage after 12 to 36 hrs by Western blot method; type: functional, cell-based
[32] = tested on: MDA-MB-231; test: Induction of apoptosis in human MDA-MB-231 cells assessed as loss of mitochondrial membrane potential after 12 to 36 hrs by rhodamine123 staining-based flow cytometric method; type: functional, cell-based
[33] = tested on: MDA-MB-231; test: Antiproliferative activity against human MDA-MB-231 cells xenografted in BALB/c nude mouse at 25 to 100 mg/kg, ig qd measured after 24 days by Ki-67 staining-based assay; type: functional, organism-based
[34] = tested on: MDA-MB-436; test: Antitumor activity against human MDA-MB-436 cells xenografted in ig dosed BALB/c nude mouse assessed as tumor growth inhibition administered once a day measured every 3 days for 24 days during compound dosing; type: functional, organism-based
[35] = tested on: MDA-MB-231; test: Induction of apoptosis in human MDA-MB-231 cells assessed as downregulation of Bcl-2 expression after 12 to 36 hrs by Western blot method; type: functional, cell-based

N#Cc1ccc(S(=O)(=O)NC(CC(=O)O)c2ccc(Cl)cc2Cl)cc1 (stereo not given)
IC50 [1]: 12.6 µM | Activity [2]: Non-Toxic | Activity [3]: Non-Toxic | Activity [4]: Non-Toxic | Activity [5]: Active | inhibition [6]: Active | inhibition [7]: Active | Activity [8]: Non-Toxic | Activity [9]: Active | Activity [10]: Active | Activity [11]: Active | Activity [12]: Active | Activity [13]: Active | Activity [14]: Active | Activity [15]: Active | Activity [16]: Active | Activity [17]: Active | Activity [18]: Active | Activity [19]: Active | Activity [20]: Non-Toxic | TGI [21]: Dose-dependent effect | Activity [22]: Active | Activity [23]: Toxic | IC50 [24]: 19.8 µM | Activity [25]: Non-Toxic | Activity [26]: Active | Activity [27]: Toxic | Activity [28]: Active | Activity [29]: Active | Activity [30]: Active | Activity [31]: Active | Activity [32]: Active | Activity [33]: Active | TGI [34]: Dose-dependent effect | Activity [35]: Active
